Laboratory results as given in patent US8592422B2, “Bicyclic triazole and pyrazole lactams as allosteric modulators of mGluR5 receptors” (Vanderbilt University, priority 2010, dated 2013).

Target: T1, human mGluR5a receptor (Homo sapiens, UniProt P41594)
T1 construct: cDNA subcloned into pcDNA3.1(-)
Experiment: Cell-based functional Ca2+ mobilization assay (FDSS), potentiation of glutamate EC20 response
Details: for pEC50 / EC50: HEK cells transfected with human mGluR5 (H10H or H12H), in presence of EC20 glutamate; for EC50: read-out: EC50; for Emax (%) / Emax: maximum % effect in concentration-response curve, as percent of response to maximally effective glutamate
Experimental: Human embryonic kidney (HEK) cells transfected with rat mGluR5 were plated in clear bottom assay plates for assay in a Functional Drug Screening System (FDSS). In the alternative assay, HEK cells transfected with human mGluR5 were plated for assay in the FDSS. In some cases the HEK cells transfected with human mGluR5 were the H10H cell line. Alternatively, the HEK cells transfected with human mGluR5 were the H12H cell line. […] The cells were loaded with a Ca^2+-sensitive fluorescent dye (e.g., Fluo-4), and the plates were washed and placed in the FDSS instrument. After establishment of a fluorescence baseline for twelve seconds, the compounds of the present invention were added to the cells, and the response in cells was measured. Alternatively, in various further aspects, after establishment of a fluorescence baseline for about three seconds, the compounds of the present invention were added to the cells, and the response in cells was measured. Five minutes later, an mGluR5 agonist (e.g., glutamate, 3,5-dihydroxyphenylglycine, or quisqualate) was added to the cells, and the response of the cells was measured.
The above described assay operated in two modes. In the first mode, a range of concentrations of the present compounds were added to cells, followed by a single fixed concentration of agonist. If a compound acted as a potentiator, an EC50 value for potentiation and a maximum extent of potentiation by the compound at this concentration of agonist was determined by non-linear curve fitting. In the second mode, several fixed concentrations of the present compounds were added to various wells on a plate, followed by a range of concentrations of agonist for each concentration of present compound; the EC50 values for the agonist at each concentration of compound were determined by non-linear curve fitting. A decrease in the EC50 value of the agonist with increasing concentrations of the present compounds (a leftward shift of the agonist concentration-response curve) is an indication of the degree of mGluR5 potentiation at a given concentration of the present compound. An increase in the EC50 value of the agonist with increasing concentrations of the present compounds (a rightward shift of the agonist concentration-response curve) is an indication of the degree of mGluR5 antagonism at a given concentration of the present compound. The second mode also indicates whether the present compounds also affect the maximum response to mGluR5 to agonists.
The mGluR5 activity was determined using the metabotropic glutamate receptor activity assays in human embryonic kidney cells as described herein, wherein the human embryonic kidney cells were transfected with human mGluR5. The compounds in Table 1 were synthesized with methods identical or analogous to those shown herein. The requisite starting materials were commercially available, described in the literature, or readily synthesized by one skilled in the art of organic synthesis. The compound number given in Table I corresponds to the compound number in Table II and the structure given therein.
Human mGluR5a cDNA in pCMV6-XL6 mammalian expression plasmid was purchased from OriGene Technologies, Inc. (catalogue number SC326357) and subcloned into pcDNA3.1(−). Human embryonic kidney (HEK) 293A cells were then transfected with human mGluR5a pcDNA3.1(−) using LipofectAmine-2000 (Invitrogen) and monoclones were selected and tested for functional response using a Ca^2+ mobilization assay. Monoclones were named for the species (“H” for human) plus the location on the plate (e.g. “10H”).
HEK cells transfected with the human mGluR5a receptor (H10H or H12H cell line) were plated at 15,000 cells/well in clear-bottomed poly-D-lysine-coated assay plates (BD Falcon) in glutamate-glutamine-free growth medium and incubated overnight at 37° C. and 5% CO2.

T1 sequence (P41594 21-1180 isoform P41594-2 limits assumed): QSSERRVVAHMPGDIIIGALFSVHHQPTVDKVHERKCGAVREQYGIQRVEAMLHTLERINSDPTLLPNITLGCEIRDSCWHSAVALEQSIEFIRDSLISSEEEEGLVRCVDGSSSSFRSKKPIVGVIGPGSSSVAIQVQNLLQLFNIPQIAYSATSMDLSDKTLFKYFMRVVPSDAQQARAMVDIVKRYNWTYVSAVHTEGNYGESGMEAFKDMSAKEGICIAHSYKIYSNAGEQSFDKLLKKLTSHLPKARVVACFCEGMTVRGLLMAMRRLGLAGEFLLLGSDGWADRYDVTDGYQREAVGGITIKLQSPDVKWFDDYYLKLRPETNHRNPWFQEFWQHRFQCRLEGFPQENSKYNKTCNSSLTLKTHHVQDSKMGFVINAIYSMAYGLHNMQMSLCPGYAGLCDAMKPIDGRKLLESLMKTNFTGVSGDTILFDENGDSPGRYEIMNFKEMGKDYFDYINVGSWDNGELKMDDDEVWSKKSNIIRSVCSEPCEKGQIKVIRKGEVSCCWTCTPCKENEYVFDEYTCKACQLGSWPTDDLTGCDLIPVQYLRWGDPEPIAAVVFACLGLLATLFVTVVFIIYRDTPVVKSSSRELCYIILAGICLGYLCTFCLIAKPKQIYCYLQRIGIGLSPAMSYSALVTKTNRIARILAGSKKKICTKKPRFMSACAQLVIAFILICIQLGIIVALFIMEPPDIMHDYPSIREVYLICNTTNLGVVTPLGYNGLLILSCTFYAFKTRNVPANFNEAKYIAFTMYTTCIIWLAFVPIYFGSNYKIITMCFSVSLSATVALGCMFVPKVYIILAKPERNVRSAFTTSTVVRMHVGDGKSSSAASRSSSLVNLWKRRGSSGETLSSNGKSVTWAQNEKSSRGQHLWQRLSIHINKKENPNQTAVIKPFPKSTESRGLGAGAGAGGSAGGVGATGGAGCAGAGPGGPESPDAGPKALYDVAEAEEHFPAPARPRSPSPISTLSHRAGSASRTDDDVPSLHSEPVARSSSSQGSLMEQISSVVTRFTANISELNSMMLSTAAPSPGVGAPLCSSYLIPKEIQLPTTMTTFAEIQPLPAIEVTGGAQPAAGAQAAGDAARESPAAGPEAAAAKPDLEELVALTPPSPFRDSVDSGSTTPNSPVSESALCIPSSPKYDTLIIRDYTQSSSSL

pEC50	EC50	Emax (%)	Emax	Compound
6.79	162 nM	70%		CC1Cn2nc(COc3ccccc3)cc2C(=O)N1c1ccc(F)cc1 (racemic) [Example 18]
6.70	200 nM	52%		CC1CN(c2ccc(F)cn2)C(=O)c2cc(COc3ccc(F)cc3)nn21 (racemic) [Example 237]
<5.00	> 10000 nM	52%		CC1CNC(=O)c2cc(COc3ccccc3)nn21 (racemic) [Example 250]
<4.52	> 30200 nM	25%		CC(Oc1ccccc1)c1cc2n(n1)CCN(CC1CC1)C2=O (racemic) [Example 257]
<5.00	> 10000 nM	65%		CC(Oc1ccccc1)c1cc2n(n1)CCN(c1ccc(F)cc1)C2=O (racemic) [Example 258]
5.92	1200 nM	87%		O=C1c2cc(COc3ccccc3)nn2C(CO)CN1c1ccc(F)cc1 (racemic) [Example 263]
6.95	112 nM	63%		O=C1c2cc(COc3ccccc3)nn2C(CF)CN1c1ccc(F)cc1 (racemic) [Example 264]
7.05	89 nM	66%		O=C1c2cc(COc3ccccc3)nn2C(F)CN1c1ccc(F)cc1 (racemic) [Example 271]
6.85	141 nM	66%		CC1CN(CC2CC2)C(=O)c2cc(COc3ccccc3)nn21 (single isomer, unassigned) [Example 128]
<4.52	> 30200 nM	21%		CC1CN(CC2CC2)C(=O)c2cc(COc3ccccc3)nn21 (single isomer, unassigned) [Example 129]
7.08	83 nM	71%		CC1CN(c2ccc(F)cc2)C(=O)c2cc(COc3ccccc3)nn21 (single isomer, unassigned) [Example 130]
7.00	100 nM	68%		CC1CN(c2ccc(F)cn2)C(=O)c2cc(COc3ccccc3)nn21 (single isomer, unassigned) [Example 132]
7.00	100 nM	56%		Cc1nc(N2CC(C)n3nc(COc4ccccc4)cc3C2=O)ccc1F (single isomer, unassigned) [Example 135]
6.87	135 nM	67%		CC1CN(c2ccc(F)cc2)C(=O)c2cc(COc3ccc(F)cc3)nn21 (single isomer, unassigned) [Example 238]
7.21	62 nM	72%		CC1CN(c2ccc(F)cc2)C(=O)c2cc(COc3cccc(F)c3)nn21 (single isomer, unassigned) [Example 239]
<4.52	> 30200 nM	23%		CC1CN(c2ccc(F)cc2)C(=O)c2cc(COc3ccccn3)nn21 (single isomer, unassigned) [Example 240]
7.04	91 nM	69%		O=C1c2cc(COc3ccccc3)nn2C(F)CN1c1ccc(F)cc1 (single isomer, unassigned) [Example 272]
6.97	107 nM	68%		O=C1c2cc(COc3ccccc3)nn2C(F)CN1c1ccc(F)cc1 (single isomer, unassigned) [Example 273]
7.12	75 nM	60%		Cc1nc2cc(N3CC(C)n4nc(COc5ccccc5)cc4C3=O)ccc2s1 (single isomer, unassigned) [Example 376]
5.65	2240 nM	69%		O=C1NCCn2nc(COc3ccccc3)cc21 [Example 1]
5.87	1350 nM	72%		CN1CCn2nc(COc3ccccc3)cc2C1=O [Example 2]
6.94	115 nM	101%		O=C1c2cc(COc3ccccc3)nn2CCN1c1ccc(F)cc1F [Example 3]

pEC50	EC50	Emax (%)	Emax	Compound
	617 nM		52%	O=c1c2nc(COc3ccccc3)nn2ccn1-c1ccc(F)cc1 [Example 4]
5.59	2570 nM	73%		O=C1c2nc(COc3ccccc3)nn2CCN1c1ccc(F)cc1 [Example 5]
7.14	72 nM	82%		O=C1c2cc(COc3ccccc3)nn2CCN1c1ccc(F)cc1 [Example 6]
6.06	871 nM	69%		O=C1c2cc(COc3ccccc3)nn2CCN1c1ccccn1 [Example 12]
5.73	1860 nM	64%		O=C1c2cc(COc3ccccc3)nn2CCN1c1cccnc1 [Example 13]
6.68	209 nM	76%		Cc1ccc(N2CCn3nc(COc4ccccc4)cc3C2=O)nc1 [Example 16]
6.98	105 nM	75%		CC(C)CN1CCn2nc(COc3ccccc3)cc2C1=O [Example 26]
6.24	575 nM	80%		O=C1c2cc(COc3ccccc3)nn2CCN1c1ccncc1F [Example 29]
	537 nM		75%	Cc1cccnc1N1CCn2nc(COc3ccccc3)cc2C1=O [Example 30]
6.13	741 nM	74%		Cc1ccncc1N1CCn2nc(COc3ccccc3)cc2C1=O [Example 32]
	2070 nM		74%	Cn1ccn2nc(COc3ccccc3)cc2c1=O [Example 37]
7.09	81 nM	65%		Cc1cccc(N2CCn3nc(COc4ccccc4)cc3C2=O)c1 [Example 48]
7.09	81 nM	64%		Cc1ccc(N2CCn3nc(COc4ccccc4)cc3C2=O)cc1 [Example 49]
6.92	120 nM	58%		COc1ccc(N2CCn3nc(COc4ccccc4)cc3C2=O)cc1 [Example 50]
7.26	55 nM	61%		COc1cc(N2CCn3nc(COc4ccccc4)cc3C2=O)ccc1F [Example 51]
7.58	26 nM	68%		Cc1cc(N2CCn3nc(COc4ccccc4)cc3C2=O)ccc1F [Example 52]
7.62	24 nM	69%		Cc1cccc(N2CCn3nc(COc4ccccc4)cc3C2=O)c1C [Example 56]
6.82	150 nM	67%		CCOc1ccccc1N1CCn2nc(COc3ccccc3)cc2C1=O [Example 57]
6.92	120 nM	58%		COc1ccc(N2CCn3nc(COc4ccccc4)cc3C2=O)cc1F [Example 58]
7.40	40 nM	66%		Cc1cc(F)ccc1N1CCn2nc(COc3ccccc3)cc2C1=O [Example 60]
7.19	65 nM	68%		Cc1ccc(F)cc1N1CCn2nc(COc3ccccc3)cc2C1=O [Example 61]
7.27	53 nM	60%		Cc1ccc(N2CCn3nc(COc4ccccc4)cc3C2=O)cc1F [Example 62]

Compound	pEC50	EC50	Emax (%)	Emax
O=C1c2cc(COc3ccccc3)nn2CCN1c1ccc(F)cn1 [Example 11]	6.81	155 nM	79%	
